Assay [1] relates to QP-C-expressing bacteriophage T7 (human QP-C). Briefly: Competitive binding assay by phage display. The settings on record: competitor 200 μM, biotinylated terpestacin 5 μM immobilized. On the procedure:
Bacteriophage T7 (NOVAGEN®) was purchased which encodes cDNA library obtained from live different human tissues (hepatoma, normal liver, dementia brain, normal brain, and normal stomach). A host cell E. coli BLT5615 was infected with Bacteriophage followed by amplification. Biotinylated terpestacin (5 μM) in TBS buffer (pH 7.5) was immobilized on a streptavidin-coated 96-well plate (Pierce Biotechnology), and then the amplified, bacteriophage T7 library (6×1.0^9 pfu/mL) was added to the terpestacin-immobilized wells. After being stirred at room temperature for 1 hour, bacteriophage T7 particles which were not hound to terpestacin were washed with TBS buffer to remove the non-bound bacteriophage T7 particles. Terpestacin-bound bacteriophage T7 particles were elated for 1 hour with addition of terpestacin (100 μM) dissolved in TBS buffer. The elated bacteriophage T7 particles were infected into E. coli strain BLT5615 cultured on LB agar medium. The thus-formed bacteriophage T7 plaques were isolated and DNA sequences were analyzed to obtain bacteriophage expressing a ubiquinone-binding protein (QP-C) of the mitochondria complex III.
QP-C-expressing bacteriophage T7 was infected into a host cell E. coli BLT5615, followed by amplification. […] The thus-formed bacteriophage plaques were counted and the results were compared between the treated group and the control group (see FIG. 6).

Assay [2] relates to human umbilical vein endothelial cells (HUVEC). Briefly: Tube formation of human umbilical vein endothelial cells (VEGF-induced, Matrigel). The settings on record: VEGF 30 ng/mL, HDNT 2.5, 5 μM, 8 hours. Format: cell-based.
Procedure: A 48-well plate was coated with 150 μl of Matrigel (10 mg/mL, Collaborative Biomedical Products), followed by polymerization at 37° C. for 2 hours. […] The cells were cultured in an incubator for 8 hours while observing morphological changes of the cells under a microscope.
In assay [3] the test system is mitochondrial membrane potential of HUVECs. Put plainly: Determination of mitochondrial membrane potential (JC-1 staining). It is filed as cell-based, human. The settings on record: HUVEC, HDNT 1, 5, 10 μM, 4 hours. On the procedure:
Human umbilical vein endothelial cells (HUVEC) were seeded on a 24-well plate (2×10^4 cells/well) and cultured in EBM-2 (LONZA®) medium containing 10% fetal bovine serum (INVITROGEN®). Then, the cells were washed with PBS buffer (pH 7.4) and the culture medium was then replaced with a fresh one. The inventive compound HDNT (1, 5, 10 μM) was added to the culture medium and the cells were incubated for 4 hours. In order to measure changes of the mitochondrial membrane potential, the cells were stained with […] a lipophilic cationic probe 5,5′6,6′-tetrachloro-1,1′,3,3′-tetraethylbenzimidazole-carbocyanine iodide (JC-1, MOLECULAR PROBES®) for 15 min. The carbocyanine cationic dye forms a red fluorescent J-aggregate at a hyperpolarization membrane potential (to −140 mV), and the dye maintains a green fluorescent monomeric form at a depolarization membrane potential (to −100 mV). The stained cells were washed twice with PBS buffer. A microscopic image (×100) was obtained under an IX70 fluorescent microscope OLYMPUS®) (see FIG. 5).

The next assay has as its target T1, purified QP-C protein (Homo sapiens, UniProt P14927).
T1 construct: GST (N, cleaved yes); made in house; host or cells: E. coli BL21
T1 sequence (P14927 1-111): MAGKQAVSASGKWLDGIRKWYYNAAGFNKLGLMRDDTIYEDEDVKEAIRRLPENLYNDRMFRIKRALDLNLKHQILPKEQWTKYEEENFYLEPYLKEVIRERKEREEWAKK
Put plainly: Competitive binding assay by surface plasmon resonance. The settings on record: compound 25 μM, QP-C protein 25 μM, biotinylated terpestacin 100 μM immobilized. As to the method: Using, liver tissue cDNA library as a template, a QP-C gene (GENBANK® Accession No. NM_006294 was amplified by polymerase chain reaction (PCR). Sequences of PCR primers used herein are as follows: forward primer 5′-[…]-3′, and reverse primer 5′-[…]-3′. The QP-C gene was inserted into a multi cloning site (EcoRI/XhoI site) of a pGEX-4T1 vector (Amersham Pharmacia) which was then transformed into E. coli BL21 for protein expression, IPTG (1 mM) was added to the LB culture OD600=0.6) of the transformed bacteria, followed by shaking culture at 37° C. for 4 hours. The cells were disrupted using a sonicator and the expressed GST/QP-C fusion protein was purified by addition of glutathione agarose heads (SIGMA®). In order to remove a GST portion of the fusion protein, thrombin (Amersham Pharmacia) was added thereto at room temperature, followed by overnight stirring. Only the supernatant containing the QP-C protein was recovered by centrifugation (see FIG. 2). […]
The binding sensorgram containing association and dissociation curves was obtained by BIACORE® 2000, and 50 mM NaOH (5 μl) was poured on the sensor chip surface to result in regeneration. […] A surface plasmon resonance response curve was analyzed using BIACORE® Evaluations software, version 3.1 (see FIG. 8).
Background: SPR reads the build-up and loss of mass on a sensor chip optically.

Assay [4] relates to human umbilical vein endothelial cells (HUVEC). Put plainly: HUVEC invasion assay (Transwell, VEGF). It is filed as cell-based. The settings on record: VEGF 30 ng/mL, HDNT 2.5, 5 μM, 18 hours. As to the method:
Invasion of human umbilical vein endothelial cells (HUVEC) was measured in vitro using a TRANSWELL® chamber system (Corning Costar) equipped with a polycarbonate filter. First, a lower part of the filter was coated with 10 μl of gelatin (10 mg/mL) for 1 hour, and an upper part of the filter was coated with 10 μl of MATRIGEL® (3 mg/mL) for 2 hours. […] The coated filter was placed on the TRANSWELL®, and HUVECs (1×10^5 cells/well) were inoculated on the upper part of the filter, followed by cell culture in an incubator for 18 hours. Then, the cells were fixed with 70% methanol and stained with hematoxylin/eosin. Total cells in one filter were microscopically counted to measure a degree of cell invasion (see FIG. 4).

Assay [5] has as its target T2, mitochondrial protein QP-C (Homo sapiens, UniProt P14927).
T2 construct: endogenous in cells; host or cells: HUVEC
T2 sequence (P14927 1-111): T1 sequence (P14927 1-111)
Put plainly: Competitive binding assay by fluorescent staining in HUVECs. Format: cell-based. The settings on record: for Inhibition of binding between coumarin-terpestacin and QP-C (blue fluorescence in the cytoplasm): HUVEC, pretreatment 24 hours with HDNT 10 μM or terpestacin 30 μM, coumarin-terpestacin 20 μM 2 hours. On the procedure:
Human umbilical vein endothelial cells (HUVEC) were seeded on a 24-well plate (2×10^4 cells/well) and cultured in EBM-2 (LONZA®) medium containing 10% fetal bovine serum (INVITROGEN®). Then, the cells were washed with PBS buffer (pH 7.4), and the culture medium was replaced with a fresh one. The inventive compound HDNT (10 μM) or the compound terpestacin (30 μM) binding to QP-C was added to each well and the cells were incubated for 24 hours. A fluorescent dye coumarin (20 μM) and coumarin-conjugated terpestacin (20 μM) were each added to the control group and the treated group, followed by incubation for another 2 hours. The cells were washed with PBS buffer. Fluorescent intensity was observed under an IX70 fluorescent microscope (OLYMPUS®) and a microscopic image was taken (see FIG. 7).

Assay [6] relates to human umbilical vein endothelial cells (HUVEC). The settings on record: cited from earlier work.
The test system of assay [7] is embryonic chick chorioallantoic membrane (CAM). The following applies: cited from earlier work.
In another assay the test system is HIV. The following applies: cited from earlier work.

The values that follow come from patent US8450502B2, “Pharmaceutical compositions for inhibiting angiogenesis” (Industry-Academic Cooperation Foundation Yonsei University, priority 2008, dated 2013).

What is called inhibition is the drop in the measured response relative to a control, in per cent.

On to `O=C1Sc2ccc(S(=O)(=O)Nc3ccc(O)c4ccccc34)c3cccc1c23` [HDNT, 6-((1-hydroxynaphthalen-4-ylamino)dioxysulfone)-2H-naphtho[1,8-bc]thiophen-2-one], for which the “Inhibition of binding between biotinylated terpestacin and QP-C-expressing bacteriophage T7” value in assay [1] is “effectively inhibited”. Besides, the “VEGF-mediated tube formation of HUVECs” value in assay [2] was “inhibited VEGF-mediated tube formation and invasion of HUVECs in a concentration-dependent manner”. In addition, the “Change of mitochondrial membrane potential (JC-1 red/green fluorescence)” value in [3] is “disrupts the mitochondrial membrane potential”. The “Inhibition of the binding between biotin-terpestacin and QP-C protein” value at purified QP-C protein was determined as 40%. In addition, the “VEGF-mediated invasion of HUVECs” value in assay [4] was “inhibited VEGF-mediated tube formation and invasion of HUVECs in a concentration-dependent manner”. Besides, the “Inhibition of binding between coumarin-terpestacin and QP-C (blue fluorescence in the cytoplasm)” value in assay [5] is “blue fluorescence was significantly decreased”.
Turning to `C/C1=C/CC/C(C)=C/CC2(C)C(=O)C(O)=C(C(C)COC(=O)CCCCCNC(=O)CCCCCNC(=O)Cc3c(C)c4ccc(N)cc4oc3=O)C2C/C=C(\C)C(O)CC1` (stereo not shown) [coumarin-terpestacin], the “Fluorescence staining of HUVECs” value in assay [5] (20 μM, 2 hours) is reported as “intense blue fluorescence in the cytoplasm”.
Regarding `C/C1=C\C[C@]2(C)C(=O)C(O)=C([C@H](C)CO)[C@H]2C/C=C(\C)[C@@H](O)CC/C(C)=C/CC1` [terpestacin], the “Angiogenic responses of HUVEC in vitro” value in [6] is “strongly inhibits angiogenic responses”. In addition, the “Inhibition of binding between biotinylated terpestacin and QP-C-expressing bacteriophage T7” value in [1] is given as “significantly inhibited”. In [7], the “Angiogenesis of embryonic chick chorioallantoic membrane (CAM) in vivo” value is reported as “strongly inhibits angiogenesis”. In addition, the inhibition at 25 µM at purified QP-C protein (read-out: Inhibition of the binding between biotin-terpestacin and QP-C protein) is no more than 60%. Also, the “Formation of syncytium during HIV infections” value in the assay with HIV is reported as “inhibit the formation of syncytium”. For the same compound, in assay [5], the “Inhibition of binding between coumarin-terpestacin and QP-C (blue fluorescence in the cytoplasm)” value is “significant attenuation of blue fluorescence”.
